From patent publication US7868013B2, “Cycloalkyl substituted pyrimidinediamine compounds and their uses” (Rigel Pharmaceuticals, Inc., priority 2004, dated 2011)
Where a name gives a salt, the structure may show the parent alone. Read-outs that look alike come from different tables or passages of the source.

Key:
[1] = system: H1299 (non-small cell lung carcinoma); assay: In vitro antiproliferation assay, H1299 cells (TABLE 1 6 point assay; TABLE 2); format: cell-based; settings: H1299 cells, read-out: IC50, H1299 cells
Procedure: (§1) Certain compounds were tested against other cell types for their ability to inhibit proliferation in standard antiproliferation assays.

A549 (lung carcinoma) = assay: In vitro antiproliferation assay, A549 cells (TABLE 1 6 point assay; TABLE 2); format: cell-based
Procedure: as §1

[2] = Homo sapiens, NCI-H1299, 6 point assay
[3] = Homo sapiens, A549, 6 point assay, A549 cells, read-out: IC50, A549 cells

Compound	IC50 [1, 2]	IC50 (A549 (lung carcinoma); [3])	IC50 (A549 (lung carcinoma); Homo sapiens, A549, A549, read-out: In Vitro IC50)	IC50 ([1]; 6 point assay)	IC50 (A549 (lung carcinoma); 6 point assay, A549 cells, read-out: IC50, A549 cells)
Cc1cc(Nc2ncc(F)c(NC3CCCC3C(N)=O)n2)ccc1N1CCN(C)CC1 (stereo not drawn) [compound 206, (cis)-N4-(2-Carboxamidocyclopent-1-yl)-5-fluoro-N2-[3-methyl-4-(4-methylpiperazino)phenyl]-2,4-pyrimidinediamine]	100 to 1000 nM	100 to 1000 nM	≤ 1000 nM		
CN1CCN(c2ccc(Nc3ncc(F)c(NC4CCCC4C(N)=O)n3)cc2C(F)(F)F)CC1 (stereo not drawn) [compound 207, (cis)-N4-(2-Carboxamidocyclopent-1-yl)-5-fluoro-N2-[4-(4-methylpiperazino)-3-trifluoromethylphenyl]-2,4-pyrimidinediamine Bis Hydrogen Chloride Salt]				1000 to 10000 nM	100 to 1000 nM
COC(=O)[C@H]1CC[C@@H](Nc2nc(Nc3ccc(N4CCN(C)CC4)c(C)c3)ncc2F)C1 [compound 214, (1R,3S)-N4-(3-Methoxycarbonylcyclopent-1-yl)-5-fluoro-N2-[3-methyl-4-(4-methylpiperazin-1-yl)phenyl]-2,4-pyrimidinediamine]	1000 to 10000 nM	1000 to 10000 nM			
Cc1cc(Nc2ncc(F)c(N[C@H]3CC[C@H](C(N)=O)C3)n2)ccc1N1CCN(C)CC1 [compound 220, (1S,3S)-N4-(3-Aminocarbonylcyclopent-1-yl)-5-fluoro-N2-[3-methyl-4-(4-methylpiperazin-1-yl)phenyl]-2,4-pyrimidinediamine]	1000 to 10000 nM	1000 to 10000 nM			
Cc1cc(Nc2ncc(F)c(N[C@@H]3C=C[C@H](C(N)=O)C3)n2)ccc1N1CCN(C)CC1 [compound 225, (1S,4R)-cis-N4-(4-Aminocarbonylcyclopent-2-ene-1-yl)-5-fluoro-N2-[3-methyl-4-(4-methylpiperazin-1-yl)phenyl]-2,4-pyrimidinediamine]	100 to 1000 nM	100 to 1000 nM			
Cc1cc(Nc2ncc(F)c(N[C@H]3C=C[C@@H](C(N)=O)C3)n2)ccc1N1CCN(C)CC1 [compound 226, (1R,4S)-cis-N4-(4-Aminocarbonylcyclopent-2-ene-1-yl)-5-fluoro-N2-[3-methyl-4-(4-methylpiperazin-1-yl)phenyl]-2,4-pyrimidinediamine]	1000 to 10000 nM	1000 to 10000 nM			
Cc1cc(Nc2ncc(F)c(NC3CC=CC3)n2)ccc1N1CCN(C)CC1 [compound 237, N4-(Cyclopent-3-ene-1-yl)-5-fluoro-N2-[3-methyl-4-(4-methylpiperazin-1-yl)phenyl]-2,4-pyrimidinediamine]	1000 to 10000 nM	100 to 1000 nM			
Cc1cc(Nc2ncc(F)c(NC3(C(=O)O)CCCC3)n2)ccc1N1CCN(C)CC1 [compound 246, N4-(1-Carboxycyclopent-1-yl)-5-fluoro-N2-[3-methyl-4-(4-methylpiperazin-1-yl)phenyl]-2,4-pyrimidinediamine]	> 10000 nM	> 10000 nM			
Cc1cc(Nc2ncc(F)c(NC3(C(N)=O)CCCC3)n2)ccc1N1CCN(C)CC1 [compound 248, N4-(1-Aminocarbonylcyclopent-1-yl)-5-fluoro-N2-[3-methyl-4-(4-methylpiperazin-1-yl)phenyl]-2,4-pyrimidinediamine]	> 10000 nM	> 10000 nM			

Second part, the molecule after the results:

IC50 [1, 2]	IC50 (A549 (lung carcinoma); [3])	IC50 (A549 (lung carcinoma); Homo sapiens, A549, A549, read-out: In Vitro IC50)	IC50 ([1]; 6 point assay)	IC50 (A549 (lung carcinoma); 6 point assay, A549 cells, read-out: IC50, A549 cells)	Compound
1000 to 10000 nM	1000 to 10000 nM				COC(=O)[C@H]1CCC[C@@H]1Nc1nc(Nc2ccc(N3CCN(C)CC3)c(C)c2)ncc1F [compound 208, (1S,2S)-5-fluoro-N4-(2-methoxycarbonylcyclopent-1-yl)-N2-[3-methyl-4-(4-methylpiperazino)phenyl]-2,4-pyrimidinediamine]
> 10000 nM	> 10000 nM				Cc1cc(Nc2ncc(F)c(N[C@H]3CCC[C@@H]3C(=O)O)n2)ccc1N1CCN(C)CC1 [compound 209, (1S,2S)-5-fluoro-N4-(2-hydroxycarbonylcyclopent-1-yl)-N2-[3-methyl-4-(4-methylpiperazino)phenyl]-2,4-pyrimidinediamine]
1000 to 10000 nM	1000 to 10000 nM				CCOC(=O)[C@@H]1CCC[C@H]1Nc1nc(Nc2ccc(N3CCN(C)CC3)c(C)c2)ncc1F [compound 210, (1R,2R)-N4-(2-Ethoxycarbonylcyclopent-1-yl)-5-fluoro-N2-{3-methyl-4-(4-methylpiperazino)phenyl]-2,4-pyrimidinediamine]
> 10000 nM	> 10000 nM				Cc1cc(Nc2ncc(F)c(N[C@@H]3CCC[C@H]3C(=O)O)n2)ccc1N1CCN(C)CC1 [compound 211, (1R,2R)-5-fluoro-N4-(2-hydroxycarbonylcyclopent-1-yl)-N2-[3-methyl-4-(4-methylpiperazino)phenyl]-2,4-pyrimidinediamine]
1000 to 10000 nM	1000 to 10000 nM				Cc1ccc(Nc2ncc(F)c(NC3CCCC3C(N)=O)n2)cc1 (stereo not drawn) [compound 212, (cis)-N4-(2-Carboxamidocyclopent-1-yl)-5-fluoro-N2-(4-methylphenyl)-2,4-pyrimidinediamine]
100 to 1000 nM	100 to 1000 nM				Cc1cc(Nc2ncc(F)c(NC3CCCC3C(N)=O)n2)cc(C)c1O (stereo not drawn) [compound 213, (cis)-N4-(2-Carboxamidocyclopent-1-yl)-N2-(3,5-dimethyl-4-hydroxyphenyl)-5-fluoro-2,4-pyrimidinediamine]
1000 to 10000 nM	1000 to 10000 nM				COC(=O)[C@@H]1CC[C@H](Nc2nc(Nc3ccc(N4CCN(C)CC4)c(C)c3)ncc2F)C1 [compound 215, (1S,3R)-N4-(3-Methoxycarbonylcyclopent-1-yl)-5-fluoro-N2-[3-methyl-4-(4-methylpiperazin-1-yl)phenyl]-2,4-pyrimidinediamine]
> 10000 nM	> 10000 nM				Cc1cc(Nc2ncc(F)c(N[C@H]3CC[C@@H](C(=O)O)C3)n2)ccc1N1CCN(C)CC1 [compound 219, (1S,3R)-N4-(3-Carboxycyclopent-1-yl)-fluoro-N2-[3-methyl-4-(4-methylpiparazin-1-yl)phenyl]-2,4-pyrimidinediamine]
> 10000 nM	1000 to 10000 nM				Cc1cc(Nc2ncc(F)c(NC3(C(N)=O)CC=CC3)n2)ccc1N1CCN(C)CC1 [compound 238, N4-(1-Aminocarbonylcyclopent-3-ene-1-yl)-5-fluoro-N2-[3-methyl-4-(4-methylpiperazin-1-yl)phenyl]-2,4-pyrimidinediamine]
> 10000 nM	> 10000 nM				Cc1cc(Nc2ncc(F)c(NC3(C(=O)NC4CC4)CC=CC3)n2)ccc1N1CCN(C)CC1 [compound 244, N4-(1-Cyclopropylaminocarbonylcyclopent-3-en-1-yl)-5-fluoro-N2-[3-methyl-4-(4-methylpiperazin-1-yl)phenyl]-2,4-pyrimidinediamine]
> 10000 nM	> 10000 nM				Cc1cc(Nc2ncc(F)c(NC3(C(=O)NC4CC4)CCCC3)n2)ccc1N1CCN(C)CC1 [compound 247, N4-(1-Cyclopropylaminocarbonylcyclopent-1-yl)-5-fluoro-N2-[3-methyl-4-(4-methylpiperazin-1-yl)phenyl]-2,4-pyrimidinediamine]
100 to 1000 nM	100 to 1000 nM				Cc1cc(Nc2ncc(F)c(N[C@@H]3[C@H]4CC[C@H](C4)[C@@H]3C(=O)NC3CC3)n2)ccc1N1CCN(C)CC1 [compound 253, (1S,2R,3S,4R)-N4-(3-N-Cyclopropylaminocarbonylbicyclo[2.2.1]hept-2-yl)-5-fluoro-N2-[3-methyl-4-(4-methylpiperazin-1-yl)phenyl]-2,4-pyrimidinediamine]
